The source of these data is ChEMBL document CHEMBL6153079, “Discovery of noncovalent diaminopyrimidine-based Inhibitors for glioblastoma via a dual FAK/DNA targeting strategy” (Eur J Med Chem, 2025).

One assay relates to U-251. Nature of the assay: Antiproliferative activity against human U-251 assessed as cell viability incubated for 48 hrs by MTT assay. It counts as functional, cell-based. The following applies: U-251, 48 h. (Tetrazolium dyes change colour on reduction, which living cells bring about.)
Assay [1] has as its target T1, Focal adhesion kinase 1 (Homo sapiens, UniProt Q05397). Nature of the assay: Inhibition of FAK (unknown origin) at 50 nM relative to control.
The test system of the next assay is U-87 MG. Kind of assay: Antiproliferative activity against human U-87 MG assessed as cell viability incubated for 48 hrs by MTT assay. It counts as functional, cell-based, U-87MG ATCC.
The target in assay [2] is T1, Focal adhesion kinase 1. Kind of assay: Inhibition of FAK (unknown origin) at 10 nM relative to control.

T1 sequence (Q05397 2-1052 limits assumed): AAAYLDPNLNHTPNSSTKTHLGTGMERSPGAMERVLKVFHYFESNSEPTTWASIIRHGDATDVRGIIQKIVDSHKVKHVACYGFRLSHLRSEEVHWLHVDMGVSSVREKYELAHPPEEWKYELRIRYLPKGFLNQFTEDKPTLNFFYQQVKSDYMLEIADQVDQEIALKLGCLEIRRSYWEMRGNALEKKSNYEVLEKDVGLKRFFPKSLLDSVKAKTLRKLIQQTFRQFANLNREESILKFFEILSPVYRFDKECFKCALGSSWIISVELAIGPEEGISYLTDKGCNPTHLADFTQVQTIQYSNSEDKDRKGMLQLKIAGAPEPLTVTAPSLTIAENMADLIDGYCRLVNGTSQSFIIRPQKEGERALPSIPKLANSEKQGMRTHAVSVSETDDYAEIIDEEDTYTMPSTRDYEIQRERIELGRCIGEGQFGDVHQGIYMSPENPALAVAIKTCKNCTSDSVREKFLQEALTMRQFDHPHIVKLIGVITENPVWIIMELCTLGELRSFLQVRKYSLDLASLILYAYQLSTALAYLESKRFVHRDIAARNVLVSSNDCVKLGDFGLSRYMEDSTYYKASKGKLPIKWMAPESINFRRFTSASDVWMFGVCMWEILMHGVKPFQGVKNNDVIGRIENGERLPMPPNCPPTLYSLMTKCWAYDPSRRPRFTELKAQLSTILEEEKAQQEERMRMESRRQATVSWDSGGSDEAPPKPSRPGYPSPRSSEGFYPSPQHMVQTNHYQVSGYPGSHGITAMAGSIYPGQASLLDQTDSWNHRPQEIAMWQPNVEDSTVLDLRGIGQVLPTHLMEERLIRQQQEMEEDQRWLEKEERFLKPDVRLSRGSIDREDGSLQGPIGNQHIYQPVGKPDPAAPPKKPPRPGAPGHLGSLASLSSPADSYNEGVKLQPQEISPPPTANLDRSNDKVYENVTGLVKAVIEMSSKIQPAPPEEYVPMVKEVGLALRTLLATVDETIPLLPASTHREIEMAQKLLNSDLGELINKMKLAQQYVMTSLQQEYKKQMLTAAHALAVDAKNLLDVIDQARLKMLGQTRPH

Turning to `CNC(=O)c1ccccc1Nc1nc(Nc2ccc(N3CCN(CCOC(=O)c4ccc(N(CCCl)CCCl)cc4)CC3)cc2)ncc1Cl`, the figures for the IC50 in the assay with U-251 and in the assay with U-87 MG were 1210 nM and 390 nM, respectively. Also, the results for the inhibition against Focal adhesion kinase 1 [1] and at Focal adhesion kinase 1 [2] were 78.5% and 51.9%, respectively.
For the molecule `CNC(=O)c1ccccc1Nc1nc(Nc2ccc(N3CCN(C(=O)CCCc4ccc(N(CCCl)CCCl)cc4)CC3)cc2OC)ncc1Cl`, the IC50 – broadly, the point on the concentration scale where inhibition reaches its midpoint – with U-251 was > 50000 nM; with U-87 MG, 18000 nM. In addition, the inhibition – broadly, the change of the read-out against control, counted positive when it falls – is 67.3% against Focal adhesion kinase 1 [1] and 32.2% against Focal adhesion kinase 1 [2].
Turning to `CNC(=O)c1ccccc1Nc1nc(Nc2ccc(N3CCN(CCOC(=O)CCCc4ccc(N(CCCl)CCCl)cc4)CC3)cc2)ncc1[N+](=O)[O-]`, the values for the IC50 in the assay with U-251 and with U-87 MG were 849 nM and 605 nM, respectively. Further, the figures for the inhibition against Focal adhesion kinase 1 [1] and at Focal adhesion kinase 1 [2] were 75.4% and 36.5%, respectively.
As to `CNC(=O)c1ccccc1Nc1nc(Nc2ccc(N3CCN(C(=O)c4ccc(N(CCCl)CCCl)cc4)CC3)cc2)ncc1Cl`, the 50% inhibitory concentration (IC50) in the assay with U-251 turned out to be 6260 nM; in the assay on U-87 MG, 1760 nM. For the same molecule, the inhibition amounted to 77.5% on Focal adhesion kinase 1 [1] and 55.8% against Focal adhesion kinase 1 [2].
For `CNC(=O)c1ccccc1Nc1nc(Nc2ccc(N3CCN(CCOC(=O)CCCc4ccc(N(CCCl)CCCl)cc4)CC3)cc2)ncc1Cl` the same measures were 485 nM, 95 nM, 94.5% and 79.8%.
On to `CNC(=O)c1ccccc1Nc1nc(Nc2ccc(N3CCN(C(=O)CCCc4ccc(N(CCCl)CCCl)cc4)CC3)cc2)ncc1Cl`, for which the IC50 worked out at 3700 nM with U-251 and 990 nM in the assay on U-87 MG. Also, the figures for the inhibition against Focal adhesion kinase 1 [1] and against Focal adhesion kinase 1 [2] were 74.2% and 55.4%, respectively.
As to `CNC(=O)c1ccccc1Nc1nc(Nc2ccc(N3CCN(C(=O)c4ccc(N(CCCl)CCCl)cc4)CC3)cc2OC)ncc1Cl`, the 50% inhibitory concentration (IC50) in the assay on U-251 and in the assay with U-87 MG was > 50000 nM each time. For the same molecule, the inhibition came to 64.6% against Focal adhesion kinase 1 [1] and 26.2% at Focal adhesion kinase 1 [2].
As to `CNC(=O)c1ccccc1Nc1nc(Nc2ccc(N3CCN(CCO)CC3)cc2)ncc1Cl`, the IC50 in the assay with U-251 amounted to 194 nM; in the assay on U-87 MG, 62 nM. Besides, the results for the inhibition against Focal adhesion kinase 1 [1] and against Focal adhesion kinase 1 [2] were 77.9% and 67.7%, respectively.
As for `CNC(=O)c1ccccc1Nc1nc(Nc2ccc(N3CCNCC3)cc2)ncc1Cl`, the IC50 with U-251 stood at 79 nM; in the assay with U-87 MG it was 36 nM. The inhibition came out at 78.6% against Focal adhesion kinase 1 [1] and 67.9% against Focal adhesion kinase 1 [2].
With `CNC(=O)c1ccccc1Nc1nc(Nc2ccc(N3CCN(CCOC(=O)CCCc4ccc(N(CCCl)CCCl)cc4)CC3)cc2)ncc1Br`, the values for the IC50 in the assay with U-251 and with U-87 MG were 81 nM and 30 nM, respectively. Further, the inhibition on Focal adhesion kinase 1 [1] amounted to 94.2%; on Focal adhesion kinase 1 [2] it was 68.4%.
For `O=C(O)CCCc1ccc(N(CCCl)CCCl)cc1` [CHLORAMBUCIL], the IC50 in the assay on U-251 and in the assay on U-87 MG was > 50000 nM in each case. The inhibition came to 8.54% at Focal adhesion kinase 1 [1] and 2.77% on Focal adhesion kinase 1 [2].
For the molecule `CNC(=O)c1ccccc1Nc1nc(Nc2ccc(C3CCN(C(=O)c4ccc(N(CCCl)CCCl)cc4)CC3)cc2)ncc1Cl`, the IC50 in the assay on U-251 was > 50000 nM; in the assay on U-87 MG, 39600 nM. Besides, the inhibition worked out at 58.6% on Focal adhesion kinase 1 [1] and 34% on Focal adhesion kinase 1 [2].
As for `CNC(=O)c1ccccc1Nc1nc(Nc2ccc(C3CCN(C(=O)CCCc4ccc(N(CCCl)CCCl)cc4)CC3)cc2)ncc1Cl`, the IC50 was 18200 nM with U-251 and 1400 nM in the assay on U-87 MG. The inhibition on Focal adhesion kinase 1 [1] was found to be 67.5%; against Focal adhesion kinase 1 [2], 56.4%.
`CNC(=O)c1ccccc1Nc1nc(Nc2ccc(N3CCN(CCOC(=O)CCCc4ccc(N(CCCl)CCCl)cc4)CC3)cc2)ncc1C`: the IC50 in the assay on U-251 is 168 nM; with U-87 MG, 42 nM. In addition, the inhibition on Focal adhesion kinase 1 [1] worked out at 97.5%; against Focal adhesion kinase 1 [2] it was 65.8%.
